Counter-ions that a name gives are not always drawn.
What was measured:
Details in all cases: exposure time: 72 h
[1] = test system: E31 (patient-derived glioblastoma stem cells of proneural subtype); experiment: phenotypic distance (Euclidean, principal components) from DMSO controls (arbitrary units); higher = stronger morphological change
[2] = test system: E28 (patient-derived glioblastoma stem cells of classical subtype); experiment: as above
[3] = test system: FT3469 (normal neural stem cell line); experiment: as above
[4] = test system: E57 (patient-derived glioblastoma stem cells of mesenchymal subtype); experiment: as above
[5] = test system: E21 (patient-derived glioblastoma stem cells of mesenchymal subtype); experiment: as above
[6] = test system: E13 (patient-derived glioblastoma stem cells of classical subtype); experiment: as above
[7] = test system: E34 (patient-derived glioblastoma stem cells of proneural subtype); experiment: as above
[8] = test system: E31; experiment: surviving fraction (nuclei count normalised to DMSO); higher = more cells surviving (less toxic)
[9] = test system: E28; experiment: as above
[10] = test system: FT3469; experiment: as above
[11] = test system: E57; experiment: as above
[12] = test system: E21; experiment: as above
[13] = test system: E13; experiment: as above
[14] = test system: E34; experiment: as above
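Throughout, for phenotypic distance (Euclidean, principal components) from DMSO controls: cell Painting imaging in 384-well plates, CellProfiler features reduced to at least 20 principal components, Euclidean distance versus same-plate DMSO vehicle wells (0.1% v/v), median over six images per well.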
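Throughout, for surviving fraction (nuclei count normalised to DMSO): nuclei counted by high-content imaging of Hoechst-stained cells in laminin-coated 384-well plates, relative to 0.1% DMSO vehicle wells, with staurosporine as cell-death control.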

CC(C)NCC(O)COc1cccc2ccccc12 (stereo unspecified) [Propranolol hydrochloride]
Details	phenotypic distance	surviving fraction
[1], 4.1 nM	0.541	–
[1], 12.3 nM	0.694	–
[1], 37 nM	0.736	–
[1], 111.1 nM	0.802	–
[1], 333.3 nM	0.203	–
[1], 1000 nM	0.509	–
[1], 3000 nM	0.646	–
[2], 4.1 nM	0.642	–
[2], 12.3 nM	0.425	–
[2], 37 nM	0.914	–
[2], 111.1 nM	0.692	–
[2], 333.3 nM	0.687	–
[2], 1000 nM	0.509	–
[2], 3000 nM	0.633	–
[3], 4.1 nM	0.45	–
[3], 12.3 nM	0.575	–
[3], 37 nM	0.676	–
[3], 111.1 nM	0.814	–
[3], 333.3 nM	0.71	–
[3], 1000 nM	0.957	–
[3], 3000 nM	0.566	–
[4], 4.1 nM	0.6	–
[4], 12.3 nM	1.04	–
[4], 37 nM	0.554	–
[4], 111.1 nM	0.801	–
[4], 333.3 nM	0.597	–
[4], 1000 nM	0.686	–
[4], 3000 nM	0.742	–
[5], 4.1 nM	0.729	–
[5], 12.3 nM	0.784	–
[5], 37 nM	0.999	–
[5], 111.1 nM	0.707	–
[5], 333.3 nM	0.864	–
[5], 1000 nM	0.673	–
[5], 3000 nM	0.713	–
[6], 4.1 nM	0.572	–
[6], 12.3 nM	1.82	–
[6], 37 nM	0.661	–
[6], 111.1 nM	0.582	–
[6], 333.3 nM	0.522	–
[6], 1000 nM	0.547	–
[6], 3000 nM	0.516	–
[7], 4.1 nM	0.622	–
[7], 12.3 nM	0.866	–
[7], 37 nM	0.551	–
[7], 111.1 nM	0.616	–
[7], 333.3 nM	0.597	–
[7], 1000 nM	0.71	–
[7], 3000 nM	0.686	–
[8], 4.1 nM	–	0.954
[8], 12.3 nM	–	0.993
[8], 37 nM	–	1.1
[8], 111.1 nM	–	1.08
[8], 333.3 nM	–	0.917
[8], 1000 nM	–	0.96
[8], 3000 nM	–	1.05
[9], 4.1 nM	–	0.98
[9], 12.3 nM	–	1.05
[9], 37 nM	–	0.949
[9], 111.1 nM	–	1.12
[9], 333.3 nM	–	1.03
[9], 1000 nM	–	1.13
[9], 3000 nM	–	1.03
[10], 4.1 nM	–	0.985
[10], 12.3 nM	–	1.11
[10], 37 nM	–	1.03
[10], 111.1 nM	–	0.965
[10], 333.3 nM	–	1.01
[10], 1000 nM	–	1.24
[10], 3000 nM	–	1.13
[11], 4.1 nM	–	1.05
[11], 12.3 nM	–	0.959
[11], 37 nM	–	1.11
[11], 111.1 nM	–	1.14
[11], 333.3 nM	–	1.1
[11], 1000 nM	–	1.09
[11], 3000 nM	–	1.06
[12], 4.1 nM	–	0.912
[12], 12.3 nM	–	0.926
[12], 37 nM	–	0.978
[12], 111.1 nM	–	1.01
[12], 333.3 nM	–	1.01
[12], 1000 nM	–	1.1
[12], 3000 nM	–	1
[13], 4.1 nM	–	0.971
[13], 12.3 nM	–	1.08
[13], 37 nM	–	0.923
[13], 111.1 nM	–	1.07
[13], 333.3 nM	–	1.1
[13], 1000 nM	–	1.03
[13], 3000 nM	–	0.991
[14], 4.1 nM	–	0.945
[14], 12.3 nM	–	0.847
[14], 37 nM	–	0.941
[14], 111.1 nM	–	1.06
[14], 333.3 nM	–	0.876
[14], 1000 nM	–	1.1
[14], 3000 nM	–	0.949

CN(C)C(=O)Oc1ccc[n+](C)c1 [Pyridostigmine iodide]
Details	phenotypic distance	surviving fraction
[1], 4.1 nM	0.409	–
[1], 12.3 nM	0.507	–
[1], 37 nM	0.601	–
[1], 111.1 nM	0.878	–
[1], 333.3 nM	0.996	–
[1], 1000 nM	2.91	–
[1], 3000 nM	0.798	–
[2], 4.1 nM	0.458	–
[2], 12.3 nM	0.757	–
[2], 37 nM	0.73	–
[2], 111.1 nM	0.63	–
[2], 333.3 nM	0.567	–
[2], 1000 nM	0.651	–
[2], 3000 nM	0.684	–
[3], 4.1 nM	0.42	–
[3], 12.3 nM	0.709	–
[3], 37 nM	0.762	–
[3], 111.1 nM	0.872	–
[3], 333.3 nM	0.927	–
[3], 1000 nM	0.794	–
[3], 3000 nM	1.39	–
[4], 4.1 nM	0.948	–
[4], 12.3 nM	0.52	–
[4], 37 nM	0.595	–
[4], 111.1 nM	0.71	–
[4], 333.3 nM	0.854	–
[4], 1000 nM	0.982	–
[4], 3000 nM	0.881	–
[5], 4.1 nM	0.939	–
[5], 12.3 nM	0.565	–
[5], 37 nM	0.637	–
[5], 111.1 nM	0.901	–
[5], 333.3 nM	3.46	–
[5], 1000 nM	1.09	–
[5], 3000 nM	1.02	–
[6], 4.1 nM	0.653	–
[6], 12.3 nM	0.436	–
[6], 37 nM	0.527	–
[6], 111.1 nM	0.34	–
[6], 333.3 nM	0.667	–
[6], 1000 nM	0.894	–
[6], 3000 nM	1.1	–
[7], 4.1 nM	0.578	–
[7], 12.3 nM	0.331	–
[7], 37 nM	1.86	–
[7], 111.1 nM	0.616	–
[7], 333.3 nM	0.79	–
[7], 1000 nM	0.731	–
[7], 3000 nM	0.846	–
[8], 4.1 nM	–	0.967
[8], 12.3 nM	–	1.05
[8], 37 nM	–	0.914
[8], 111.1 nM	–	1.02
[8], 333.3 nM	–	1.07
[8], 1000 nM	–	0.944
[8], 3000 nM	–	0.851
[9], 4.1 nM	–	1.07
[9], 12.3 nM	–	0.975
[9], 37 nM	–	1.02
[9], 111.1 nM	–	1.05
[9], 333.3 nM	–	0.949
[9], 1000 nM	–	1.18
[9], 3000 nM	–	0.96
[10], 4.1 nM	–	1.01
[10], 12.3 nM	–	1.12
[10], 37 nM	–	1.2
[10], 111.1 nM	–	1.07
[10], 333.3 nM	–	1.12
[10], 1000 nM	–	1.06
[10], 3000 nM	–	1.15
[11], 4.1 nM	–	1.16
[11], 12.3 nM	–	1.04
[11], 37 nM	–	0.923
[11], 111.1 nM	–	0.99
[11], 333.3 nM	–	0.98
[11], 1000 nM	–	1.01
[11], 3000 nM	–	0.937
[12], 4.1 nM	–	0.969
[12], 12.3 nM	–	1.03
[12], 37 nM	–	1.08
[12], 111.1 nM	–	0.887
[12], 333.3 nM	–	0.981
[12], 1000 nM	–	0.99
[12], 3000 nM	–	1.04
[13], 4.1 nM	–	1.02
[13], 12.3 nM	–	1.15
[13], 37 nM	–	1.04
[13], 111.1 nM	–	0.975
[13], 333.3 nM	–	1.06
[13], 1000 nM	–	1.03
[13], 3000 nM	–	0.989
[14], 4.1 nM	–	1.17
[14], 12.3 nM	–	0.894
[14], 37 nM	–	1.01
[14], 111.1 nM	–	0.914
[14], 333.3 nM	–	0.904
[14], 1000 nM	–	1.05
[14], 3000 nM	–	1.24

— the supplement of paper PMC13207355
